From ChEMBL document CHEMBL1139958, “Synthesis and biological evaluation of analogues of the anti-tumor alkaloid naamidine A” (Bioorg Med Chem Lett, 2007)
pIC50: −log10 of the molar value.

Test: Inhibition EGF-dependent mitogenesis of mouse BaF/ERX cells by [3H]thymidine incorporation assay
Type: functional, cell-based

| SMILES | pIC50 |
| --- | --- |
| CN1C(=O)N=C(Nc2nc(-c3ccccc3)c(-c3ccccc3)s2)C1=O | < 4.12 |
| COc1ccc(-c2nc(NC(=O)NCc3ccccc3)sc2-c2ccc(OC)cc2)cc1 | < 4.12 |
| COc1ccc(-c2nc(NC(=O)[C@H](C)N)sc2-c2ccc(OC)cc2)cc1 | 4.92 |
| CN1C(=O)N=C(Nc2ncc(Cc3ccc(O)cc3)n2C)C1=O | 5.40 |
| COc1ccc(Cc2nc(N)sc2Cc2ccc(O)cc2)cc1 | 4.74 |
| Nc1nc(-c2ccccc2)c(-c2ccccc2)s1 | < 4.12 |
| Nc1nc(-c2ccc(O)cc2)c(-c2ccc(O)cc2)s1 | < 4.12 |
| Nc1nc(-c2ccccc2)c(Cc2ccc(O)cc2)s1 | 4.30 |
| COc1ccc(Cc2nc(NC3=NC(=O)N(C)C3=O)sc2Cc2ccc(O)cc2)cc1 | 5.00 |
| CN1C(=O)N=C(Nc2nc(Cc3ccc(OCc4ccccc4)cc3)c(Cc3ccc(O)cc3)s2)C1=O | < 4.12 |
| CN1C(=O)N=C(Nc2nc(-c3ccccc3)c(Cc3ccc(O)cc3)s2)C1=O | 4.60 |
| COc1ccc(Cc2nc(NC3=NC(=O)N(C)C3=O)n(C)c2Cc2ccc(O)cc2)cc1 | 5.52 |
| CN1C(=O)N=C(Nc2nc(-c3ccc(Cl)cc3)c(Cc3ccc(O)cc3)s2)C1=O | 4.82 |
| COc1ccc(-c2nc(N)sc2-c2ccc(OC)cc2)cc1 | < 4.12 |
| COc1ccc(-c2nc(NC3=NC(=O)N(C)C3=O)sc2-c2ccc(OC)cc2)cc1 | 4.30 |
| CN1C(=O)N=C(Nc2nc(-c3ccc(O)cc3)c(-c3ccc(O)cc3)s2)C1=O | 5.30 |
| COc1ccc(Cc2[nH]c(=N)n(C)c2Cc2ccc(O)cc2)cc1 [NAAMINE A] | 4.12 |

Test: Inhibition IL3-dependent mitogenesis of mouse BaF/ERX cells by [3H]thymidine incorporation assay
Type: functional, cell-based

| SMILES | pIC50 |
| --- | --- |
| COc1ccc(-c2nc(NC3=NC(=O)N(C)C3=O)sc2-c2ccc(OC)cc2)cc1 | 5.00 |
| COc1ccc(Cc2[nH]c(=N)n(C)c2Cc2ccc(O)cc2)cc1 [NAAMINE A] | 4.12 |
